According to patent US9783511B2, “Carbamate benzoxazine propionic acids and acid derivatives for modulation of RORgamma activity and the treatment of disease” (Merck Sharp & Dohme Corp., priority 2013, dated 2017):

molecular target: human RORgammaT-Ligand Binding Domain (LBD) (Homo sapiens (Human), UniProt P51449); assay: RORγ-Ligand Binding Domain TR-FRET Assay (co-activator peptide SRC1_2 recruitment); type: biochemical; conditions: HIS-tagged RORγ-LBD 3 nM, biotinylated SRC1 LXXLL peptide 100 nM, incubated overnight at 4° C., 665 nm/615 nm ratio
Sequence (P51449 269-508): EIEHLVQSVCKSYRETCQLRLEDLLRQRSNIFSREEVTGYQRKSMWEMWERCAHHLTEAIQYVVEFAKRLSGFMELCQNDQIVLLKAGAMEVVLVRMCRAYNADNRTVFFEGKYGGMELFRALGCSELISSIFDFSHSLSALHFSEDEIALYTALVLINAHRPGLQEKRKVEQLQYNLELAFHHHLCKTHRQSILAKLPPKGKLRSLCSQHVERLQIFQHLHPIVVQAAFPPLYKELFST
In short: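 E. coli-expressed, Ni2+-purified HIS-tagged human RORγ-LBD at 3 nM final in 50 mM Tris pH 7.0, 50 mM KCl, 1 mM EDTA, 0.1 mM DTT, 100 μg/mL delipidated BSA. TR-FRET read-out of SRC1_2 co-activator peptide recruitment; compounds dispensed acoustically.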

Structure (SMILES)	IC50
COc1cncc(S(=O)(=O)N2C[C@H](CCC(=O)O)Oc3ccc(NC(=O)OC(C)(C)C(F)(F)F)cc32)c1 [Example 6BY, 3-[(2S)-4-[(5-methoxypyridin-3-yl)sulfonyl]-6-{[(2,2,2-trifluoro-1,1-dimethylethoxy)carbonyl]amino}-3,4-dihydro-2H-1,4-benzoxazin-2-yl]propanoic acid]	27.1 nM
CCOc1sc(C2CC2)nc1S(=O)(=O)N1C[C@H](CCC(=O)O)Oc2ccc(NC(=O)OC(C)(C)C(F)(F)F)cc21 [Example 6CD, 3-[(2S)-4-[(2-cyclopropyl-5-ethoxy-1,3-thiazol-4-yl)sulfonyl]-6-{[(2,2,2-trifluoro-1,1-dimethylethoxy)carbonyl]amino}-3,4-dihydro-2H-1,4-benzoxazin-2-yl]propanoic acid]	14.4 nM
CCOc1sc(C(F)(F)F)nc1S(=O)(=O)N1C[C@H](CCC(=O)O)Oc2ccc(NC(=O)OC(C)(C)C(F)(F)F)cc21 [Example 6CE, 3-[(2S)-4-{[5-ethoxy-2-(trifluoromethyl)-1,3-thiazol-4-yl]sulfonyl}-6-{[(2,2,2-trifluoro-1,1-dimethylethoxy)carbonyl]amino}-3,4-dihydro-2H-1,4-benzoxazin-2-yl]propanoic acid]	67.5 nM
CCc1nc(S(=O)(=O)N2C[C@H](CCC(=O)O)Oc3ccc(NC(=O)OC(C)(C)C(F)(F)F)cc32)c(OC(C)C)s1 [Example 6CF, 3-[(2S)-4-{[2-ethyl-5-(1-methylethoxy)-1,3-thiazol-4-yl]sulfonyl}-6-{[(2,2,2-trifluoro-1,1-dimethylethoxy)carbonyl]amino}-3,4-dihydro-2H-1,4-benzoxazin-2-yl]propanoic acid]	20 nM
CC(C)(OC(=O)Nc1ccc2c(c1)N(S(=O)(=O)c1cc(C3CC3)ccc1F)C[C@H](CCC(=O)O)O2)C(F)(F)F [Example 6CH, 3-[(2S)-4-[(5-cyclopropyl-2-fluorophenyl)sulfonyl]-6-{[(2,2,2-trifluoro-1,1-dimethylethoxy)carbonyl]amino}-3,4-dihydro-2H-1,4-benzoxazin-2-yl]propanoic acid]	18.1 nM
CC(C)(OC(=O)Nc1ccc2c(c1)N(S(=O)(=O)c1ccc(F)c(F)c1)C[C@H](CCC(=O)O)O2)C(F)(F)F [Example 6N, (S)-3-(4-((3,4-difluorophenyl)sulfonyl)-6-((((1,1,1-trifluoro-2-methylpropan-2-yl)oxy)carbonyl)amino)-3,4-dihydro-2H-benzo[b][1,4]oxazin-2-yl)propanoic acid]	14 nM
CC(C)(OC(=O)Nc1ccc2c(c1)N(S(=O)(=O)c1cccc(OC(F)(F)F)c1)C[C@H](CCC(=O)O)O2)C(F)(F)F [Example 6S, (S)-3-(6-((((1,1,1-trifluoro-2-methylpropan-2-yl)oxy)carbonyl)amino)-4-((3-(trifluoromethoxy)phenyl)sulfonyl)-3,4-dihydro-2H-benzo[b][1,4]oxazin-2-yl)propanoic acid]	6 nM
CC(C)(OC(=O)Nc1ccc2c(c1)N(S(=O)(=O)c1cccc(OC(F)F)c1)C[C@H](CCC(=O)O)O2)C(F)(F)F [Example 6T, (S)-3-(4-((3-(difluoromethoxy)phenyl)sulfonyl)-6-((((1,1,1-trifluoro-2-methylpropan-2-yl)oxy)carbonyl)amino)-3,4-dihydro-2H-benzo[b][1,4]oxazin-2-yl)propanoic acid]	4 nM
CC(C)(OC(=O)Nc1ccc2c(c1)N(S(=O)(=O)c1cccc(S(C)(=O)=O)c1)C[C@H](CCC(=O)O)O2)C(F)(F)F [Example 6X, (S)-3-(4-((3-(methylsulfonyl)phenyl)sulfonyl)-6-((((1,1,1-trifluoro-2-methylpropan-2-yl)oxy)carbonyl)amino)-3,4-dihydro-2H-benzo[b][1,4]oxazin-2-yl)propanoic acid]	15 nM
CCOc1sc(CC)nc1S(=O)(=O)N1C[C@H](CC(C)(C)C(=O)O)Oc2ccc(NC(=O)OC(C)(C)C(F)(F)F)cc21 [Example 12P, 3-[(2S)-4-[(5-ethoxy-2-ethyl-1,3-thiazol-4-yl)sulfonyl]-6-{[(2,2,2-trifluoro-1,1-dimethylethoxy)carbonyl]ami-no}-3,4-dihydro-2H-1,4-benzoxazin-2-yl]-2,2-dimethylpropanoic acid]	9.22 nM
CCc1nc(S(=O)(=O)N2C[C@H](CC(C)(C)C(=O)O)Oc3ccc(NC(=O)OC(C)(C)C(F)(F)F)cc32)c(OCC(F)(F)F)s1 [Example 12R, 3-[(2S)-4-{[2-ethyl-5-(2,2,2-trifluoroethoxy)-1,3-thiazol-4-yl]sulfonyl}-6-{[(2,2,2-trifluoro-1,1-dimethylethoxy)carbonyl]ami-no}-3,4-dihydro-2H-1,4-benzoxazin-2-yl]-2,2-dimethylpropanoic acid]	12.6 nM

More lines, now with the values ahead:

IC50	Structure (SMILES)
32.4 nM	Cc1cncc(S(=O)(=O)N2C[C@H](CCC(=O)O)Oc3ccc(NC(=O)OC(C)(C)C(F)(F)F)cc32)c1 [Example 6BX, 3-[(2S)-4-[(5-methylpyridin-3-yl)sulfonyl]-6-{[(2,2,2-trifluoro-1,1-dimethylethoxy)carbonyl]amino}-3,4-dihydro-2H-1,4-benzoxazin-2-yl]propanoic acid]
12.4 nM	CCOc1sc(CC)nc1S(=O)(=O)N1C[C@H](CCC(=O)O)Oc2ccc(NC(=O)OC(C)(C)C(F)(F)F)cc21 [Example 6CC, 3-[(2S)-4-[(5-ethoxy-2-ethyl-1,3-thiazol-4-yl)sulfonyl]-6-{[(2,2,2-trifluoro-1,1-dimethylethoxy)carbonyl]amino}-3,4-dihydro-2H-1,4-benzoxazin-2-yl]propanoic acid]
22.9 nM	CCc1nc(S(=O)(=O)N2C[C@H](CCC(=O)O)Oc3ccc(NC(=O)OC(C)(C)C(F)(F)F)cc32)c(OCC(F)(F)F)s1 [Example 6CG, 3-[(2S)-4-{[2-ethyl-5-(2,2,2-trifluoroethoxy)-1,3-thiazol-4-yl]sulfonyl}-6-{[(2,2,2-trifluoro-1,1-dimethylethoxy)carbonyl]amino}-3,4-dihydro-2H-1,4-benzoxazin-2-yl]propanoic acid]
11 nM	CC(C)(OC(=O)Nc1ccc2c(c1)N(S(=O)(=O)c1cccc(C#N)c1)C[C@H](CCC(=O)O)O2)C(F)(F)F [Example 6L, (S)-3-(4-((3-cyanophenyl)sulfonyl)-6-((((1,1,1-trifluoro-2-methylpropan-2-yl)oxy)carbonyl)amino)-3,4-dihydro-2H-benzo[b][1,4]oxazin-2-yl)propanoic acid]
61.8 nM	CC(C)(C[C@H]1CN(S(=O)(=O)c2cncc(C#N)c2)c2cc(NC(=O)OC(C)(C)C(F)(F)F)ccc2O1)C(=O)O [Example 12M, 3-[(2S)-4-[(5-cyanopyridin-3-yl)sulfonyl]-6-{[(2,2,2-trifluoro-1,1-dimethylethoxy)carbonyl]ami-no}-3,4-dihydro-2H-1,4-benzoxazin-2-yl]-2,2-dimethylpropanoic acid]
16.4 nM	CCc1nc(S(=O)(=O)N2C[C@H](CC(C)(C)C(=O)O)Oc3ccc(NC(=O)OC(C)(C)C(F)(F)F)cc32)c(OC(C)C)s1 [Example 12S, 3-[(2S)-4-{[2-ethyl-5-(1-methylethoxy)-1,3-thiazol-4-yl]sulfonyl}-6-{[(2,2,2-trifluoro-1,1-dimethylethoxy)carbonyl]ami-no}-3,4-dihydro-2H-1,4-benzoxazin-2-yl]-2,2-dimethylpropanoic acid]
